Results on twelve compounds are retold here after US20240270758A1, “PYRIDINO-OR PYRIMIDO-CYCLIC COMPOUND, PREPARATION METHOD THEREFOR AND MEDICAL USE THEREOF” (Genfleet Therapeutics (Shanghai) Inc., priority 2021, published 2024).

Common to all, as to assay type: cell-based, human
Assay [1] has as its system p-ERK in AGS cells (KRAS^G12D mutation). Description: Cell p-ERK detection assay. As to conditions: 3 h incubation, HTRF. On the procedure:
AGS was purchased from ATCC; Cat. NO.: CRL-1739; F12K was purchased from Gibco; Cat. NO.: 21127-022; FBS was purchased from Gibco; Cat. NO.: 10099-141C; Trypsin (containing EDTA) was purchased from Gibco; Cat. NO.: 25200-072; DMSO was purchased from VWRAMRESCO; Cat. NO.: 0231-500ML; 96-well cell culture plate was purchased from Corning; Cat. NO.: 3599; An white background opaque 96-well plate was purchased from Cisbio; Cat. NO.: 66PL96025; Advance ERK phospho-T202/Y204 kit was purchased from Cisbio; Cat. NO.: 64AERPEH; Cell Counters were purchased from CHEMOMETEC; Model NO.: NC-200; microplate reader was purchased from PerkinElmer; Model NO.: Envison.
AGS is an endogenous human gastric adenocarcinoma cell line containing KRAS^G12D mutation, cultured in F12K+10% FBS medium. On the first day of the experiment, cells in the logarithmic growth phase were taken, digested with trypsin (containing EDTA), collected, and counted, and approximately 20,000 cells/well were inoculated in 96-well cell culture plates and cultured overnight in a 5% CO2 incubator. A 1000×3.16-fold gradient concentration stock of the compound was prepared using DMSO, diluted 200-fold into a 5× compound stock using the medium described above, and a 5× compound stock was added to each cell culture well the day after cell inoculating at a final concentration of 1× and a DMSO content of 0.1%. DMSO was used as an experimental control. After the compound was added and the incubation was continued for 3 h, the medium in the culture wells was removed, […] of cell lysis solution (from Advance ERK phospho-T202/Y204 kit, the same below) was added to each well, mixed well and incubated for 30 min, then […] of the mixed solution was transferred to a white background opaque 96-well plate, and another well was taken as a blank well with adding […] of cell lysis solution. After the transfer, […] of p-ERK HTRF antibody mixed solution (from Advance ERK phospho-T202/Y204 kit) was added to each well, after incubation for 4 h, HTRF fluorescence value (RLU) was read by a microplate reader, and p-ERK level inhibition ratio of the compound was calculated IR (%)=(RLU control-RLU compound)/(RLU control-RLU blank)×100%, compound concentration and corresponding cell p-ERK level inhibition ratio were fitted using Prism 8 four-parameter method, and IC50 value was calculated.

Assay [2] concerns AGS cells (KRAS^G12D mutation). Briefly: Cell proliferation inhibition assay (3D, CellTiter-Glo), AGS. As to conditions: 3D cell model, 5 days. From the text:
(§1) AsPC-1 was purchased from ATCC; Cat. NO.: CRL-1682; AGS was purchased from ATCC; Cat. NO.: CRL-1739; RPMI1640 was purchased from Gibco; Cat. NO.: 11875-093 2235123; F12K was purchased from Gibco; Cat. NO.: 21127-022; FBS was purchased from Gibco; Cat. NO.: 10099-141C; Trypsin (containing EDTA) was purchased from Gibco; Cat. NO.: 25200-072; CellTiter Glo-3D was purchased from Progema; Cat. NO.: G9683; 384-well sphere plates were purchased from coming; Cat. NO.: 3830; White background opaque 384-well plates were purchased from coming; Cat. NO.: 3570; Cell Counters were purchased from CHEMOMETEC; Model NO.: NC-200; microplate reader was purchased from PerkinElmer; Model NO.: Envison;
(§2) AsPC-1 is an endogenous human pancreatic cancer cell containing KRAS^G12D mutation, which is cultured in RPMI-1640 medium containing 10% FBS; AGS human gastric cancer cell line containing KRAS^G12D mutation, cultured in F-12K medium containing 10% FBS. Cells in the logarithmic growth phase were taken, digested with trypsin (containing EDTA), harvested and counted, and inoculated with 800 AsPC-1 cells/well or 400 AGS cells/well, respectively, in 384-well sphere plates and cultured overnight at 5% C02 to establish a 3D cell model. A 3.16-fold gradient concentration stock solution of 1000× compound was prepared using DMSO, diluted 100-fold into a 10× compound stock solution using media, and a 10× compound stock solution was added to each cell culture well the day after cell inoculating at a final concentration of 1× with a DMSO content of 0.1%. DMSO was used as an experimental control (control) and culture medium as a blank control (blank). After the addition of compounds, the cells were cultured for 5 days. […] CellTiter-Glo working solution was added to each well, mixed well, and incubated for 30 min. After standing for 30 min at room temperature, 40 μl of the mixed solution was transferred to a white background opaque 384-well plate. Luminescence chemiluminescence value was read on a microplate reader, and the cell proliferation inhibition ratio was calculated, IR (%)=(RLU control-RLU compound)/(RLU control-RLU blank)×100%. XLFit four-parameter method was used to fit the gradient dilution concentration of compounds and the corresponding cell proliferation inhibition ratio, and the IC50 value was calculated. […] Results for exemplary of the example compounds are shown in Table 3 below. - indicates not detected.

For assay [3], the system named is AsPC-1 cells (KRAS^G12D mutation). Briefly: Cell proliferation inhibition assay (3D, CellTiter-Glo), AsPC-1. To be noted: 3D cell model, 5 days.
Excerpt: as §1, §2

In the case of `C#Cc1cccc2cc(O)cc(-c3ncc4c(N5C[C@@H]6CC[C@@H](N6)[C@H]5C)nc(OCC56CC(C)CN5CC(C)C6)nc4c3F)c12` (stereo partly drawn) [Example Z207, 4-(2-((2,6-dimethyltetrahydro-1H-pyrrolizin-7a(5H)-yl)methoxy)-8-fluoro-4-((1R, 2R, 5S)-2-methyl-3,8-diazabicyclo[3.2.1]octan-3-yl)pyrido[4,3-d]pyrimidin-7-yl)-5-ethynylnaphthalen-2-ol], the half-maximal inhibitory concentration (IC50) in assay [1] (Homo sapiens, AGS, 3 h) came out at 13.4 nM; in assay [2] (Homo sapiens, AGS, 120 h), 32 nM; in assay [3] (Homo sapiens, ASPC1, 120 h), 91.1 nM.

Regarding `C#Cc1cccc2cc(O)cc(-c3ncc4c(N5C[C@H]6CC[C@@H](C5)N6)nc(OCC56CC(=C)CN5CC(=C)C6)nc4c3F)c12` [Example Z21], the concentration for half-maximal inhibition (IC50) in assay [1] worked out at 0.6 nM; in assay [2], 6.5 nM; in assay [3] it was 14.7 nM.

As for `C#Cc1cccc2cc(O)cc(-c3ncc4c(N5C[C@H]6CC[C@@H](C5)N6)nc(OCC56CC(=C)CN5CC5(CC5)C6)nc4c3F)c12` (stereo partly drawn) [Example Z23, 4-(4-((1R,5S)-3,8-diazabicyclo[3.2.1]octan-3-yl)-8-fluoro-2-((6′-methylenedihydro-1′H,3′H-spiro[cyclopropane-1,2′-pyrrolizin]-7a′(5′H)-yl)methoxy)pyrido[4,3-d]pyrimidin-7-yl)-5-ethynylnaphthalen-2-ol], the concentration for half-maximal inhibition (IC50) was determined as 0.76 nM in assay [1] (Homo sapiens, AGS, 3 h); 4.7 nM in assay [2] (Homo sapiens, AGS, 120 h); 33.2 nM in assay [3] (Homo sapiens, ASPC1, 120 h).

On to `C#Cc1cccc2cc(O)cc(-c3ncc4c(N5C[C@H]6CC[C@@H](C5)N6)nc(OCC56CCC7(CC7)N5CC(=C)C6)nc4c3F)c12` (stereo partly drawn) [Example Z22, 4-(4-((1R,5S)-3,8-diazabicyclo[3.2.1]oct-3-yl)-8-fluoro-2-((6′-methylenetetrahydrospiro[cyclopropane-1,3′-pyrrolizin]-7a′(5′H)-yl)methoxy)pyrido[4,3-d]pyrimidin-7-yl)-5-ethynylnaphthalen-2-ol], for which the 50% inhibitory concentration (IC50) came to 2.41 nM in assay [1] (Homo sapiens, AGS, 3 h); 10.8 nM in assay [2] (Homo sapiens, AGS, 120 h); 75.4 nM in assay [3] (Homo sapiens, ASPC1, 120 h).

Consider `C#Cc1c(Cl)ccc2cc(O)cc(-c3ncc4c(N5C[C@H]6CC[C@@H](C5)N6)nc(OCC56CC(=C)CN5CC(=C)C6)nc4c3F)c12` [Example Z216, 4-(4-((1R,5S)-3,8-diazabicyclo[3.2.1]octan-3-yl)-2-((2,6-dimethylenetetrahydro-1H-pyrrolizin-7a(5H)-yl)methoxy)-8-fluoropyrido[4,3-d]pyrimidin-7-yl)-6-chloro-5-ethynylnaphthalen-2-ol], for which the IC50 in assay [1] (Homo sapiens, AGS, 3 h) worked out at 1.22 nM; in assay [2] (Homo sapiens, AGS, 120 h), 3.14 nM; in assay [3] (Homo sapiens, ASPC1, 120 h) it was 43.7 nM.

For `C#Cc1cccc2cc(O)cc(-c3ncc4c(N5C[C@H]6CC[C@@H](C5)N6)nc(OCC56CCCN5CC(=C(F)F)C6)nc4c3F)c12` (stereo partly drawn) [Example Z27, 4-(4-((1R,5S)-3,8-diazabicyclo[3.2.1]octan-3-yl)-2-((2-(difluoromethylene)tetrahydro-1H-pyrrolizine 7a(5H)-yl)methoxy)-8-fluoropyrido[4,3-d]pyrimidin-7-yl)-5-ethynylnaphthalen-2-ol], the half-inhibitory concentration (IC50) amounted to 1.1 nM in assay [1] (Homo sapiens, AGS, 3 h); 3.1 nM in assay [2] (Homo sapiens, AGS, 120 h); 6.9 nM in assay [3] (Homo sapiens, ASPC1, 120 h).

As for `C=C1CN2CCCC2(COc2nc(N3C[C@H]4CC[C@@H](C3)N4)c3cnc(-c4cc(O)cc5cccc(F)c45)c(F)c3n2)C1` (stereo partly drawn) [Example Z24, 4-(4-((1R,5S)-3,8-diazabicyclo[3.2.1]octan-3-yl)-8-fluoro-2-((2-methylenetetrahydro-1H-pyrrolizin-7a(5H)-yl)methoxy)pyrido[4,3-d]pyrimidin-7-yl)-5-fluoronaphthalen-2-ol], the IC50 stood at 3.59 nM in assay [1] (Homo sapiens, AGS, 3 h); 3.3 nM in assay [2] (Homo sapiens, AGS, 120 h); 56 nM in assay [3] (Homo sapiens, ASPC1, 120 h).

In the case of `C#Cc1cccc2cc(O)cc(-c3ncc4c(N5C[C@H]6CC[C@@H](C5)N6)nc(OCC56CCCN5CCC6=C)nc4c3F)c12` (stereo partly drawn) [Example Z25, 4-(4-((1R,5S)-3,8-diazabicyclo[3.2.1]octan-3-yl)-8-fluoro-2-((1-methylenetetrahydro-1H-pyrrolizin-7a(5H)-yl)methoxy)pyrido[4,3-d]pyrimidin-7-yl)-5-ethynylnaphthalen-2-ol], the IC50 was 6.84 nM in assay [1] (Homo sapiens, AGS, 3 h); 24.9 nM in assay [2] (Homo sapiens, AGS, 120 h); 70.7 nM in assay [3] (Homo sapiens, ASPC1, 120 h).

With `C#Cc1c(F)ccc2cc(O)cc(-c3ncc4c(N5C[C@H]6CC[C@@H](C5)N6)nc(OCC56CC(=C)CN5CC(=C)C6)nc4c3Cl)c12` [Example Z211, 4-(4-((1R,5S)-3,8-diazacyclo[3.2.1]octan-3-yl)-8-chloro-2-((2,6-dimethylenetetrahydro-1H-pyrrolizin-7a(5H)-yl)methoxy)pyrido[4,3-d]pyrimidin-7-yl)-5-ethynyl-6-fluoronaphthalen-2-ol], the concentration for half-maximal inhibition (IC50) in assay [1] amounted to 5.47 nM; in assay [2], 4.8 nM; in assay [3], 71.9 nM.

Regarding `C#Cc1cccc2cc(O)cc(-c3ncc4c(N5C[C@H]6CC[C@@H](C5)N6)nc(OCC56CCCN5CC(=C)C6)nc4c3F)c12` (stereo partly drawn) [Example Z8, 4-(4-((1R,5S)-3,8-diazabicyclo[3.2.1]octan-3-yl)-8-fluoro-2-((2-methylenetetrahydro-1H-pyrrolizin-7a(5H)-yl)methoxy)pyrido[4,3-d]pyrimidin-7-yl)-5-ethynylnaphthalen-2-ol], the half-inhibitory concentration (IC50) was found to be 2.78 nM in assay [1] (Homo sapiens, AGS, 3 h); 5.3 nM in assay [2] (Homo sapiens, AGS, 120 h); 57.7 nM in assay [3] (Homo sapiens, ASPC1, 120 h).

Consider `C#Cc1cccc2cc(N)c(F)c(-c3ncc4c(N5C[C@H]6CC[C@@H](C5)N6)nc(OCC56CC(=C)CN5CC(=C)C6)nc4c3F)c12` [Example Z213, 4-(4-((1R,5S)-3,8-diazabicyclo[3.2.1]octan-3-yl)-2-((2,6-dimethylenetetrahydro-1H-pyrrolizin-7a(5H)-yl)methoxy)-8-fluoropyrido[4,3-d]pyrimidin-7-yl)-5-ethynyl-3-fluoronaphthalen-2-amine], for which the half-inhibitory concentration (IC50) in assay [1] (Homo sapiens, AGS, 3 h) came out at 62.9 nM; in assay [2] (Homo sapiens, AGS, 120 h) it was 57.5 nM; in assay [3] (Homo sapiens, ASPC1, 120 h) it was 335 nM.

As to `C#Cc1cccc2cc(N)cc(-c3ncc4c(N5C[C@H]6CC[C@@H](C5)N6)nc(OCC56CC(=C)CN5CC(=C)C6)nc4c3F)c12` [Example Z214, 4-(4-((1R,5S)-3,8-diazabicyclo[3.2.1]octan-3-yl)-2-((2,6-dimethylenetetrahydro-1H-pyrrolizin-7a(5H)-yl)methoxy)-8-fluoropyrido[4,3-d]pyrimidin-7-yl)-5-ethynylnaphthalen-2-amine], the figures for the IC50 in assay [1], in assay [2] and in assay [3] were 105 nM, 106 nM and 611 nM, respectively.
